# Target: Tyrosine-protein kinase ABL1 (Homo sapiens) + Ras and Rab interactor 1 (Homo sapiens) (UniProt P00519+Q13671)
# Test: Rin1/ABL1 binding disruption, potency – biochemical, TR-FRET, round 1, late-stage follow-up (AID 624124)
# Details: TR-FRET Rin1-Abl binding assay
# Sequence of Tyrosine-protein kinase ABL1 (Homo sapiens) + Ras and Rab interactor 1 (Homo sapiens) (P00519 whole entry, looked up): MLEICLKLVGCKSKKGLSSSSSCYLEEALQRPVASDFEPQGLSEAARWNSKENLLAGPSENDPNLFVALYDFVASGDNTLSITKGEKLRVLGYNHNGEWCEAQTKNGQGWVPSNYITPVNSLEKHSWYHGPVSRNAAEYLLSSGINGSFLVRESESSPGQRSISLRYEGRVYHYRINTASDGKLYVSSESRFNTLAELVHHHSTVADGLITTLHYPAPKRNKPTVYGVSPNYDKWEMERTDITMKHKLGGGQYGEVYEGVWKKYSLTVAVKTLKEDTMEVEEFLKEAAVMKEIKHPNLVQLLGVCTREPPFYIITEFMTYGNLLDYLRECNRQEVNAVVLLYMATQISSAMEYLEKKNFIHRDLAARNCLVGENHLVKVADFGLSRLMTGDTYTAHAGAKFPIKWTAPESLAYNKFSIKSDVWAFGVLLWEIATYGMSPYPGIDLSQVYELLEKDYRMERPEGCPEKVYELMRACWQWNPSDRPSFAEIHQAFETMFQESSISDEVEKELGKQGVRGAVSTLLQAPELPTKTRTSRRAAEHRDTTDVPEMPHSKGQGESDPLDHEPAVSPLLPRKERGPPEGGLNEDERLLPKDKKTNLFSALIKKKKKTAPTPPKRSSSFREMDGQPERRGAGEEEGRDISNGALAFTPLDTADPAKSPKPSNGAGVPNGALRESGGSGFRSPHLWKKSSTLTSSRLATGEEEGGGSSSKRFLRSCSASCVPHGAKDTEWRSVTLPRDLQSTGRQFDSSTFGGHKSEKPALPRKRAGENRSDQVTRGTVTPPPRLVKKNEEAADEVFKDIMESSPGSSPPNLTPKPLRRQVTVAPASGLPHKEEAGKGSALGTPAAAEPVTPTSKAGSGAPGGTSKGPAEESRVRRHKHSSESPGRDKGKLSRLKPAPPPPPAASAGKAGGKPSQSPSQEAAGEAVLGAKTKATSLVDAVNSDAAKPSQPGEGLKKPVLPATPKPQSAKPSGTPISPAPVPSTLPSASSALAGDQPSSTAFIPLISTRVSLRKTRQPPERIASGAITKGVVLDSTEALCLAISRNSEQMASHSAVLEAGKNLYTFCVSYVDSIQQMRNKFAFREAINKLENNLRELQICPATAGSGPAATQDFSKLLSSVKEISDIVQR
# Sequence of Tyrosine-protein kinase ABL1 (Homo sapiens) + Ras and Rab interactor 1 (Homo sapiens) (Q13671 whole entry, looked up): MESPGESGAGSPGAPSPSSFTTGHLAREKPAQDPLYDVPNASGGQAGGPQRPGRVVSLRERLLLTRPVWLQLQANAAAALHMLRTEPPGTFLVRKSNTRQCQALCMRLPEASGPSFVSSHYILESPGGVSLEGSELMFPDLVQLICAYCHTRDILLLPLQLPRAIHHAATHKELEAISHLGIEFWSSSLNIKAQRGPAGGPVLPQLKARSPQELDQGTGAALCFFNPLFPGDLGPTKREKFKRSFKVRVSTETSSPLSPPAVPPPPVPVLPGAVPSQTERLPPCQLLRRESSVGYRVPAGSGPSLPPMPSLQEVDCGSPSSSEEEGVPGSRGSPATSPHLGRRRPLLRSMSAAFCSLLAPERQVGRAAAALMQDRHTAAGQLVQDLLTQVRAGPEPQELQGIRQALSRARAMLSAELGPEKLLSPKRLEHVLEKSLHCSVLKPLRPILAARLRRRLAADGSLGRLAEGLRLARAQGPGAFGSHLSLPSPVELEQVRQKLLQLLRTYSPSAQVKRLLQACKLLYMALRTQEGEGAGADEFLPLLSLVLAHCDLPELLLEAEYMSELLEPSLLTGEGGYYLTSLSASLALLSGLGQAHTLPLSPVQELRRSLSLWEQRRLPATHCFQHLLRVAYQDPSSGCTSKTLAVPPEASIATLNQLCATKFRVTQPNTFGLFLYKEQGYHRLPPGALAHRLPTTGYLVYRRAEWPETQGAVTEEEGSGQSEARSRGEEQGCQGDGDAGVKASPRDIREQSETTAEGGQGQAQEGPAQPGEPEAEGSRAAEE
row,SMILES,IC50 [nM]
1,CN(C(=O)c1ccc(NC(=O)Cc2ccc(NC(=O)C3CCN(C(=O)c4ccccc4)CC3)cc2)cc1)C1CC1,620
2,CN(C(=O)c1ccc(NC(=O)Cc2ccc(NC(=O)C3CCN(C(=O)c4ccc(F)cc4)CC3)cc2)cc1)C1CC1,1060
3,COc1ccc(C(=O)N2CCC(C(=O)Nc3ccc(CC(=O)Nc4ccc(C(=O)N(C)C5CC5)cc4)cc3)CC2)cc1,3670
4,CN(C(=O)c1ccc(NC(=O)Cc2ccc(NC(=O)C3CCN(C(=O)c4cccc(F)c4)CC3)cc2)cc1)C1CC1,1350

# Reference: PubChem BioAssay AID624124 (The Scripps Research Institute Molecular Screening Center, 2012)
